Data taken from PMC13128454, “Mutant p53 protein accumulation is selectively targetable by proximity-inducing drugs” (Nature Chemical Biology, 2025).
Values joined by “and” are separate entries in the source; they are usually repeats but may differ in a detail not shown here. Equal values may be shown once. Read-outs that look alike come from different tables or passages of the source.

Assays:
Type in all cases: cell-based
[1] = tested on: Halo–p53-Y220C ΔTAD–mCherry 293T cells; assay: caspase 3/7 glo; details: for mean_norm (caspase 3/7 glo): Cell_Line Y220C, normalized to Concentration 0; for raw caspase 3/7 glo signal, single replicate: Y220C
Protocol: (§1) Cells were plated in 384-well plates (typically 1,500 cells per well) with varying concentrations of compounds with a total volume of 50 μl per well. After 1 day, caspase 3/7 glo reagent (Promega) was added following the manufacturer’s protocol and read out using an EnVision 2105 multimode plate reader.

parental 293T cells [2] = assay: caspase 3/7 glo; details: for mean_norm (caspase 3/7 glo): Cell_Line WT, normalized to Concentration 0; for raw caspase 3/7 glo signal, single replicate: WT
Protocol: as §1

parental 293T cells [3] = assay: annexin–PI staining; details: for P3_avg (P3 = early apoptotic) / P5_avg (P5 = late apoptotic): Cell_Line WT, proportion of cells; for avgprop_P3 / avgprop_P4 / avgprop_P5 / avgprop_P2 / P2_viable / P3_AnnexinPos_PIneg / P4_PIpos_AnnexinNeg / P5_PIpos_Annexinpos / prop_P3 / prop_P4 / prop_P5 / prop_P2: WT; for avgprop_P3: average proportion AnnexinPos PIneg; for avgprop_P4: average proportion PIpos AnnexinNeg; for avgprop_P5: average proportion PIpos Annexinpos; for avgprop_P2: average proportion viable; for P2_viable / P3_AnnexinPos_PIneg / P4_PIpos_AnnexinNeg / P5_PIpos_Annexinpos: event count; for P2_viable / P3_AnnexinPos_PIneg / P4_PIpos_AnnexinNeg / P5_PIpos_Annexinpos / prop_P3 / prop_P4 / prop_P5 / prop_P2: single replicate; for prop_P3: proportion AnnexinPos PIneg; for prop_P4: proportion PIpos AnnexinNeg; for prop_P5: proportion PIpos Annexinpos; for prop_P2: proportion viable
Protocol: Cells were plated in six-well plates and treated with varying concentrations of compounds for 1 day. Cells were stained with annexin V–AF488 and PI following the manufacturer’s instructions (Thermo Fisher, V13241) and analyzed by flow cytometry (Beckman CytoFLEX LX), using untreated cells to establish gates.

[4] = tested on: Calu-1 cells stably expressing Halo–p53-R273H (FL)–mCherry versus parental Calu-1 cells; assay: flow-cytometry growth competition; details: 7 days
Protocol: (§2) Cells with and without a fluorescent marker (for example, Halo–p53–mCherry) were mixed and the resulting solution was plated in six-well plates or 10-cm dishes at low density; compound was added at varying concentrations. After reaching confluence, cells were passaged and retreated with compound if needed. Otherwise, cells were trypsinized, washed and resuspended in complete growth medium in 96-well plates or tubes for flow cytometry. Untreated cell mixtures were used to establish gates separating the fluorophore^+/− populations. Analysis was conducted on a CytoFLEX LX flow cytometer.

[5] = tested on: Halo–p53-Y220C ΔTAD–mCherry 293T cells versus parental 293T cells; assay: flow-cytometry growth competition; details: for EC50: Homo sapiens, HEK-293T; for normalized_mCherry_percentage: Y220C, day 8, normalized to DMSO
Protocol: as §2

[6] = tested on: MFE319 cells stably expressing sgTP53–Cas9–EGFP versus parental MFE319 cells; assay: flow-cytometry growth competition
Protocol: as §2

parental 293T cells [7] = assay: cell-cycle analysis (DNA content, DAPI flow cytometry); details: 1 day; for 2N / 4N / Right_of_Gate1 (replicates) / Right_of_Gate2 (replicates): WT
Protocol: Cells were split into a 10-cm dish at low confluency (20%) and grown overnight. Cells were synchronized using overnight treatment with palbociclib (150 nM), washed and split into a six-well plate for treatment with compound for 24 h. Cells were harvested by trypsinization, washed twice with cold 1× PBS, fixed by dropwise addition of ice-cold 70% ethanol while vortexing and incubated overnight (4 °C). Fixed samples were centrifuged at 1,000g for 5 min and 70% ethanol was removed. Cells were washed twice with 1× PBS + 1% BSA before DNA labeling with 1 µg ml^−1 DAPI for 10 min at room temperature, before being analyzed for DNA content by flow cytometry (Beckman CytoFLEX LX).

[8] = Conc 0.38 (unit not given; p53-01 in μM, BI2536 in nM)
[9] = Conc 0.75 (unit not given; p53-01 in μM, BI2536 in nM)
[10] = Conc 1.50 (unit not given; p53-01 in μM, BI2536 in nM)

CC[C@@H]1C(=O)N(C)c2cnc(Nc3ccc(C(=O)NCCOCCOCCOCCOCCC(=O)N4CCC(Nc5cccc6c5cc(C#CCNc5ccc(S(C)(=O)=O)cc5OC)n6CC(F)(F)F)CC4)cc3OC)nc2N1C1CCCC1 [p53-01, PMV6-PEG4-BI2536]
mean_norm (caspase 3/7 glo) ([1]; Concentration 19.5312): 1.044
mean_norm (caspase 3/7 glo) ([1]; Concentration 39.0625): 0.9705
mean_norm (caspase 3/7 glo) ([1]; Concentration 78.125): 0.9927
mean_norm (caspase 3/7 glo) ([1]; Concentration 156.25): 0.9639
mean_norm (caspase 3/7 glo) ([1]; Concentration 312.5): 0.9272
mean_norm (caspase 3/7 glo) ([1]; Concentration 625): 0.8899
mean_norm (caspase 3/7 glo) ([1]; Concentration 1250): 1.234
mean_norm (caspase 3/7 glo) ([1]; Concentration 2500): 2.011
mean_norm (caspase 3/7 glo) ([1]; Concentration 5000): 2.316
mean_norm (caspase 3/7 glo) ([1]; Concentration 10000): 2.222
raw caspase 3/7 glo signal, single replicate ([1]; Concentration 19.5312): 122690 and 136337 and 118028 and 144163
raw caspase 3/7 glo signal, single replicate ([1]; Concentration 39.0625): 117294 and 127747 and 106194 and 133419
raw caspase 3/7 glo signal, single replicate ([1]; Concentration 78.125): 123437 and 120512 and 118467 and 133301
raw caspase 3/7 glo signal, single replicate ([1]; Concentration 156.25): 105036 and 125984 and 107588 and 142722
raw caspase 3/7 glo signal, single replicate ([1]; Concentration 312.5): 120420 and 114761 and 112118 and 115705
raw caspase 3/7 glo signal, single replicate ([1]; Concentration 625): 92711 and 123269 and 91753 and 136660
raw caspase 3/7 glo signal, single replicate ([1]; Concentration 1250): 148294 and 147349 and 143892 and 176603
raw caspase 3/7 glo signal, single replicate ([1]; Concentration 2500): 271302 and 236256 and 229038 and 267460
raw caspase 3/7 glo signal, single replicate ([1]; Concentration 5000): 327582 and 262469 and 277595 and 289089
raw caspase 3/7 glo signal, single replicate ([1]; Concentration 10000): 286008 and 259961 and 264959 and 298921
induction of apoptosis ([1]; versus parental 293T, caspase 3/7 glo and annexin–PI, 1 day): differentially induced apoptosis
mean_norm (caspase 3/7 glo) (parental 293T cells [2]; Concentration 19.5312): 1.032
mean_norm (caspase 3/7 glo) (parental 293T cells [2]; Concentration 39.0625): 0.9788
mean_norm (caspase 3/7 glo) (parental 293T cells [2]; Concentration 78.125): 1.009
mean_norm (caspase 3/7 glo) (parental 293T cells [2]; Concentration 156.25): 0.9403
mean_norm (caspase 3/7 glo) (parental 293T cells [2]; Concentration 312.5): 0.9336
mean_norm (caspase 3/7 glo) (parental 293T cells [2]; Concentration 625): 0.8748
mean_norm (caspase 3/7 glo) (parental 293T cells [2]; Concentration 1250): 1.007
mean_norm (caspase 3/7 glo) (parental 293T cells [2]; Concentration 2500): 1.185
mean_norm (caspase 3/7 glo) (parental 293T cells [2]; Concentration 5000): 1.4986
mean_norm (caspase 3/7 glo) (parental 293T cells [2]; Concentration 10000): 1.763
raw caspase 3/7 glo signal, single replicate (parental 293T cells [2]; Concentration 19.5312): 133494 and 117337 and 138819 and 114789
raw caspase 3/7 glo signal, single replicate (parental 293T cells [2]; Concentration 39.0625): 123804 and 109630 and 139391 and 105438
raw caspase 3/7 glo signal, single replicate (parental 293T cells [2]; Concentration 78.125): 123731 and 127401 and 120215 and 121439
raw caspase 3/7 glo signal, single replicate (parental 293T cells [2]; Concentration 156.25): 127240 and 99863 and 130913 and 101408
raw caspase 3/7 glo signal, single replicate (parental 293T cells [2]; Concentration 312.5): 120672 and 107314 and 116046 and 112110
raw caspase 3/7 glo signal, single replicate (parental 293T cells [2]; Concentration 625): 120568 and 89735 and 125147 and 91991
raw caspase 3/7 glo signal, single replicate (parental 293T cells [2]; Concentration 1250): 122108 and 116864 and 133954 and 118859
raw caspase 3/7 glo signal, single replicate (parental 293T cells [2]; Concentration 2500): 139477 and 137713 and 153198 and 148518
raw caspase 3/7 glo signal, single replicate (parental 293T cells [2]; Concentration 5000): 207130 and 170945 and 175970 and 178176
raw caspase 3/7 glo signal, single replicate (parental 293T cells [2]; Concentration 10000): 233886 and 204323 and 214988 and 207998
P3_avg (P3 = early apoptotic) (parental 293T cells [3]; Concentration 0.75): 0.05911
P5_avg (P5 = late apoptotic) (parental 293T cells [3]; Concentration 0.75): 0.02085
P3_avg (P3 = early apoptotic) (parental 293T cells [3]; Concentration 1.5): 0.05067
P5_avg (P5 = late apoptotic) (parental 293T cells [3]; Concentration 1.5): 0.02081
avgprop_P3 (parental 293T cells [3]; Concentration 0.75): 0.05911
avgprop_P4 (parental 293T cells [3]; Concentration 0.75): 0.03071
avgprop_P5 (parental 293T cells [3]; Concentration 0.75): 0.02085
avgprop_P2 (parental 293T cells [3]; Concentration 0.75): 0.8893
P2_viable (parental 293T cells [3]; Concentration 0.75): 1988 and 1975 and 1922
P3_AnnexinPos_PIneg (parental 293T cells [3]; Concentration 0.75): 134 and 116 and 141
P4_PIpos_AnnexinNeg (parental 293T cells [3]; Concentration 0.75): 58 and 71 and 74
P5_PIpos_Annexinpos (parental 293T cells [3]; Concentration 0.75): 48 and 44 and 46
prop_P3 (parental 293T cells [3]; Concentration 0.75): 0.06014 and 0.05258 and 0.06459
prop_P4 (parental 293T cells [3]; Concentration 0.75): 0.02603 and 0.03218 and 0.0339
prop_P5 (parental 293T cells [3]; Concentration 0.75): 0.02154 and 0.01995 and 0.02107
prop_P2 (parental 293T cells [3]; Concentration 0.75): 0.8923 and 0.8953 and 0.8804
avgprop_P3 (parental 293T cells [3]; Concentration 1.5): 0.05067
avgprop_P4 (parental 293T cells [3]; Concentration 1.5): 0.03243
avgprop_P5 (parental 293T cells [3]; Concentration 1.5): 0.02081
avgprop_P2 (parental 293T cells [3]; Concentration 1.5): 0.8961
P2_viable (parental 293T cells [3]; Concentration 1.5): 1971 and 1980 and 1990
P3_AnnexinPos_PIneg (parental 293T cells [3]; Concentration 1.5): 112 and 109 and 115
P4_PIpos_AnnexinNeg (parental 293T cells [3]; Concentration 1.5): 75 and 68 and 72
P5_PIpos_Annexinpos (parental 293T cells [3]; Concentration 1.5): 48 and 43 and 47
prop_P3 (parental 293T cells [3]; Concentration 1.5): 0.05077 and 0.04955 and 0.05171
prop_P4 (parental 293T cells [3]; Concentration 1.5): 0.034 and 0.03091 and 0.03237
prop_P5 (parental 293T cells [3]; Concentration 1.5): 0.02176 and 0.01955 and 0.02113
prop_P2 (parental 293T cells [3]; Concentration 1.5): 0.8935 and 0.9 and 0.8948
activity in competition [4]: did not observe any activity
mCherry_percent ([5]; 1 uM, 8 days, untreated 39.76): 6.93%
Emax, decline in the mCherry^+ fraction ([5]; 8-day competition): 21.5 fold
EC50 ([5]; 192 h, 8-day competition, read-out: EC50 growth competition): 443 nM
EC50 ([5]; 240 h, growth competition analyzed on day 10, n = 3, read-out: Competition EC50): 850 nM
normalized_mCherry_percentage ([5]; 62.5 nM): 97.27%
normalized_mCherry_percentage ([5]; 125 nM): 95.36%
normalized_mCherry_percentage ([5]; 250 nM): 82.43%
normalized_mCherry_percentage ([5]; 500 nM): 42.51%
normalized_mCherry_percentage ([5]; 1 uM): 16.67%
normalized_mCherry_percentage ([5]; 2 uM): 4.655%
selection in growth competition ([5]; dosed between 250 nM and 2 μM, 8-day): strong selection against p53-Y220C^+ cells
mCherry^+ percentage in competition, replicate ([5]; p53-01 250 nM, untreated 28.89, 29.94, 29.02): 3.07 and 3.6 and 3.2
decline in mCherry^+ percentage ([5]; p53-01 alone at 250 nM): 8.9 fold
merge_avg (growth competition, sheet 4H) ([6]; Concentration (pM) 156250): 0.9416
merge_avg (growth competition, sheet 4H) ([6]; Concentration (pM) 312500): 0.9268
merge_avg (growth competition, sheet 4H) ([6]; Concentration (pM) 600000): 0.9517
merge_avg (growth competition, sheet 4H) ([6]; Concentration (pM) 800000): 1.131
merge_avg (growth competition, sheet 4H) ([6]; Concentration (pM) 1000000): 1.205
merge_avg (growth competition, sheet 4H) ([6]; Concentration (pM) 1100000): 1.344
merge_avg (growth competition, sheet 4H) ([6]; Concentration (pM) 1250000): 1.624
enrichment of EGFP^+ (TP53-knockout) population ([6]; day 9, p53-01 at doses between 800 nM and 1.25 μM): significantly enrich an EGFP^+ population
DNA content (parental 293T cells [7]; 0.75 μM, synchronized cells): unaffected
2N (parental 293T cells [7]; [8]): 59.15
4N (parental 293T cells [7]; [8]): 37.20
Right_of_Gate1 (replicates) (parental 293T cells [7]; [8]): 40.85 and 40.98 and 41.52
Right_of_Gate2 (replicates) (parental 293T cells [7]; [8]): 3.65 and 3.77 and 3.58
2N (parental 293T cells [7]; [9]): 59.00
4N (parental 293T cells [7]; [9]): 37.55
Right_of_Gate1 (replicates) (parental 293T cells [7]; [9]): 41.00 and 43.44 and 43.05
Right_of_Gate2 (replicates) (parental 293T cells [7]; [9]): 3.45 and 3.41 and 3.53
2N (parental 293T cells [7]; [10]): 35.77
4N (parental 293T cells [7]; [10]): 52.80
Right_of_Gate1 (replicates) (parental 293T cells [7]; [10]): 64.23 and 64.42 and 63.80
Right_of_Gate2 (replicates) (parental 293T cells [7]; [10]): 11.43 and 12.05 and 12.32
